Structures are written as SMILES.

In this assay the test system is Aedes aegypti mosquitoes. Kind of assay: Field test of mosquito landings on human subjects near candles containing the test substance. The assay is classed as in vivo. The conditions noted are these: for Four Day Totals of Mosquito Landings On Subjects: field test, Connecticut, August 2003, candles at four corners of 7 ft x 7 ft squares, 18 inches above ground, four human subjects, landings counted on arms, legs and torso, control without substance 152. The procedure: In a test of the inhibiting ability of the (S)-(+)-linalool chiral isomer compound of this invention, the following field test was conducted. The study was conducted in August 2003 on a site in Connecticut. Candles containing the test compound or no compound were placed 18 inches above the ground at the four corners of 7 ft×7 ft squares, with the squares being placed 50 ft apart. Four subjects (persons) were employed in the tests. On a given day, the subjects were rotated through all four positions of a square. Each day, treatments rotated to the next position, so that each treatment was tested at each site. The landing of mosquitoes on the subject were counted. Landing counts were taken from the arms, legs and torso of a test subject.

Regarding `C=CC(C)(O)CCC=C(C)C` (stereo not drawn) [Linalool: 35% (+), 65% (−), Linalool, reference compound], the “Four Day Totals of Mosquito Landings On Subjects” value was 82.

As for `C=CC(C)(O)CCC=C(C)C` (stereo not drawn) [Linalool: 85% (+), 15% (−), Linalool], the “Four Day Totals of Mosquito Landings On Subjects” value amounted to 42. In addition, the “Mosquito landings relative to linalool” value (same candle field test, four day totals) stood at 73.5%.

Source of the values: US20050090563A1, “Method and compositions for inhibiting the scent tracking ability of mosquitoes and biting midges” (Bedoukian Research, Inc., priority 2003, published 2005).
